Literature values, collected in US6987129B2, “Compounds and methods for the treatment of urogenital disorders” (Cellegy Pharmaceuticals, Inc., priority 2001, dated 2006).

What was measured:
[1] = in vivo
women with FSAD = conditions: human, in vivo

| excretion [1] | metabolism by the liver [1] | Compound | efficacy in a larger clinical trial including other patients suffering from FSAD (women with FSAD) | efficacy in women with spinal cord injury and in women using antidepressants such as serotonin reuptake inhibitors (women with FSAD) |
| --- | --- | --- | --- | --- |
| excreted unchanged by the kidneys | not metabolized by the liver | Cn1c(=O)c2c(ncn2CC(O)CO)n(C)c1=O (stereo not shown) [dyphylline] |  |  |
|  |  | CCCc1nn(C)c2c(=O)[nH]c(-c3cc(S(=O)(=O)N4CCN(C)CC4)ccc3OCC)nc12 [Sildenafil] | failed to show efficacy | demonstrated efficacy |
